Where a name gives a salt, the structure may show the parent alone. Read-outs that look alike come from different tables or passages of the source.

The record followed here is patent US10562843B2 (The United States of America, as represented by the …, priority 2006, dated 2020).

The test system of series [1] is single ventricular myocytes. In words: Cardiomyocyte contractility, single dose, with and without ICI 118,551. The format is cell-based.
Description: In these studies, the contraction amplitude indexed by electrical pacing induced shortening of cell length was measured in single ventricular myocytes before and after exposure to a single dose of the test compounds.
In another series the target is human β2-AR (Homo sapiens, UniProt P07550).
The conditions of series [2]: IV 5 mg/kg; for Average plasma concentration: average of rats.
The subject of series [3] is freshly isolated adult rat cardiomyocytes. Description: Cardiomyocyte contractility, dose-response. The format is cell-based. Particulars: for maximum contractile response: 10^−8 to 10^−5 M; for EC50: contractility dose-response. The protocol: All studies were performed within 8 hours of cell isolation.
The cells were placed on the stage of an inverted microscope (Zeiss model IM-35, Zeiss, Thornwood, N.Y.), perfused with the HEPES-buffered solution at a flow rate of 1.8 mL/minutes, and electrically stimulated at 0.5 Hz at 23° C. Cell length was monitored by an optical edge-tracking method using a photodiode array (Model 1024 SAQ, Reticon, Boston, Mass.) with a 3 ms time resolution. Cell contraction was measured by the percent shortening of cell length following electrical stimulation.

The nature of a further series: in vivo. Particulars: male, Sprague-Dawley, rat, plasma, iv, 5 mg/kg.
Where [4] appears, read: Average plasma concentration, average of rats, IV 5 mg/kg.
The mark [5] stands for this setting: Individual plasma concentration, individual rat, IV 5 mg/kg.

human β2-AR, sequence (P07550 whole entry): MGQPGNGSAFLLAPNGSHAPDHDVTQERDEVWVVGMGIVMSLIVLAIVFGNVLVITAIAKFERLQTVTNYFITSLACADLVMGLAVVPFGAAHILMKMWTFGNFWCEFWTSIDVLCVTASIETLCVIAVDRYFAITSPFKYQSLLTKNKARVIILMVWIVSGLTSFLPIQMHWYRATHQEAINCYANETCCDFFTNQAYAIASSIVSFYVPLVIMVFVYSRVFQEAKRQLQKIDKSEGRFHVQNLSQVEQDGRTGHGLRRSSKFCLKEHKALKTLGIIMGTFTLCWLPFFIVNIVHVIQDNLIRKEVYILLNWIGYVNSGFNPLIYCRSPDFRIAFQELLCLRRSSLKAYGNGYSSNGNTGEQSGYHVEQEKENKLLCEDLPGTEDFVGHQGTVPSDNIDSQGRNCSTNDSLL

Turning to `C[C@H](Cc1cccc2ccccc12)NC[C@H](O)c1cc(O)cc(O)c1.O=C(O)/C=C/C(=O)O` [(R,R)-5, (R,R)-(−)-5-{1-hydroxy-2-[1-methyl-2-(1-naphthyl)ethylamino]ethyl}-1,3-benzenediol fumarate], the “concentration eliciting maximum effect” value in series [1] is 0.1 µM. On human β2-AR, the “Ki β1/Ki β2” value turned out to be 14.

For `C[C@@H](Cc1cccc2ccccc12)NC[C@H](O)c1cc(O)cc(O)c1.O=C(O)/C=C/C(=O)O` [(R,S)-5, (R,S)-(−)-5-{1-hydroxy-2-[1-methyl-2-(1-naphthyl)ethylamino]ethyl}-1,3-benzenediol fumarate], the “concentration eliciting maximum effect” value in series [1] was 0.1 µM. Further, the “Ki β1/Ki β2” value at human β2-AR amounted to 46. Moreover, the “systemic exposure (AUC) and clearance compared to (R,R)-fenoterol” value in series [2] (rat) was “significantly higher systemic exposure (AUC) and longer clearance”.

Consider `CC(Cc1ccc(O)cc1)NCC(O)c1ccc(O)c(O)c1` (racemic) [(±)-fenoterol, 5-[1-hydroxy-2[[2-(4-hydroxyphenyl)-1-methylethyl]-amino]ethyl]1,2-benzenediol, reference compound], for which, in series [3], the maximum contractile response was 265±11.6 % resting cell length. Moreover, the EC50 in series [3] (Rattus norvegicus, Cardiomyocyte, read-out: EC50 (converted)) is 100 nM.

By AUC is commonly meant concentration integrated over time. Usually Vd stands for a proportionality between amount in the body and measured concentration, not a real space. Low values mean confinement near the circulation, high ones extensive tissue distribution. By clearance is commonly meant the rate of elimination divided by the concentration. The low end stands for inefficient removal, the high end for efficient removal. As usually defined, the half-life is the time in which the quantity being followed falls by half. A low value points to fast loss. As to `COc1ccc(C[C@@H](C)NC[C@H](O)c2cc(O)cc(O)c2)cc1` [(R,R)-2, (R,R)-(−)-1-p-Methoxyphenyl-2-(β-3′,5′-dihydroxy-phenyl-β-oxy)ethylamino-propane Fumarate], the “systemic exposure (AUC) and clearance compared to (R,R)-fenoterol” value in series [2] (rat) was “significantly higher systemic exposure (AUC) and longer clearance”. For the same molecule, in the series “in vivo”, the AUC is 1600 ng·h/mL, the distribution volume (Vd) is 2.19 L, the clearance was 15.4 mL/min and the half-life turned out to be 13.2 min. In “in vivo” (setting [4]), this molecule displayed a concentration at 5 min of 2120 ng/mL, a concentration at 15 min of 580 ng/mL, a concentration at 30 min of 410 ng/mL and a concentration at 60 min of 260 ng/mL. Besides, in “in vivo” (setting [4]), the concentration at 120 min is 170 ng/mL, the concentration at 300 min came out at 70 ng/mL and the concentration at 360 min was found to be 60 ng/mL. The molecule further had a concentration at 240 min in the series “in vivo” (Average plasma concentration, average of rats, IV 5 mg/kg, 240 min) of 120 ng/mL. In “in vivo” (setting [5]), the concentration at 5 min is 1940 ng/mL, the concentration at 15 min was determined as 480 ng/mL, the concentration at 30 min worked out at 310 ng/mL and the concentration at 60 min was 230 ng/mL. In the series “in vivo” (setting [5]), this molecule yielded a concentration at 120 min of 140 ng/mL, a concentration at 300 min of 60 ng/mL and a concentration at 360 min of 50 ng/mL.

For the molecule `C[C@@H](Cc1ccc(O)cc1)NC[C@@H](O)c1cc(O)cc(O)c1` [(S,S)-1, (S,S)-(+)-Fenoterol], in series [3], the inotropic effect result is listed as “only a minor positive inotropic effect”. Further, the contractile response result in series [1] (single dose, ICI 118,551 10^−7 mol/L) was “no observed pharmacological effect”.

Take `C[C@H](Cc1cccc2ccccc12)NC[C@@H](O)c1cc(O)cc(O)c1.O=C(O)/C=C/C(=O)O` (racemic) [(S,R)-5, (S,R)-(+)-5-{1-hydroxy-2-[1-methyl-2-(1-naphthyl)ethylamino]ethyl}-1,3-benzenediol fumarate]: on human β2-AR, the “Ki β1/Ki β2” value worked out at 19.

For `C[C@H](Cc1ccc(O)cc1)NC[C@H](O)c1cc(O)cc(O)c1` [(R,R)-1, (R,R)-(−)-Fenoterol], the maximum contractile response in series [3] is on record as 306±11.8 % resting cell length. The molecule further came in with an EC50 in series [3] of −7.1±0.2 log [M]. Besides, the Average plasma concentration came to 1.34 µg/mL in series [2] (5 min); 0.36 µg/mL in series [2] (15 min); 0.34 µg/mL in series [2] (30 min); 0.05 µg/mL in series [2] (60 min); 0.02 µg/mL in series [2] (120 min); 0.01 µg/mL in series [2] (240 min). The figures for the Average plasma concentration in series [2] (300 min) and in series [2] (360 min) were 0.005 µg/mL and 0.06 µg/mL, respectively. This molecule also had an AUC in series [2] (rat, two-compartment open model) of 29.6861 µg·min/mL.
